Results: publication PMC10951960, “CGP7930 - An allosteric modulator of GABABRs, GABAARs and inwardly-rectifying potassium channels” (Neuropharmacology, 2023)
Where two headings read alike, the source gives them in different places.

How the values were obtained:
α1β2γ2L GABAAR = target: T1, α1β2γ2L GABAAR (Mus musculus, UniProt P22723+P62812+P63137); test: whole-cell currents of recombinant GABAA receptors in HEK-293 cells (α1β2γ2L); format: cell-based, murine
T1 construct: expressed in transfected cells; host or cells: HEK-293T
Procedure: (§1) CGP55845, and other drugs, were obtained from Merck (Sigma-Aldrich) unless otherwise stated.
(§2) All cell culture reagents were acquired from ThermoFisher unless otherwise stated. […] These cells are referred to as GIRK cells throughout the text and were transiently transfected with cDNAs for eGFP, GABAB R1a and R2 in a 1:1:5 ratio applied 1–2 h after cell plating.
(§3) Spontaneous inhibitory postsynaptic currents (sIPSCs) were recorded from cultured hippocampal neurons at 12–17 days in vitro (DIV). […] For recording K^+ currents in GIRK cells and neurons, the bath solution was switched to a high K^+ solution containing 25 mM KCl and reduced NaCl (120 mM), to shift the equilibrium potential for K^+ from approximately −90 to −47 mV, thus reversing the direction of K^+ current flux to net inward. GABABR-activated K^+ currents in cultured neurons were recorded in the additional presence of 2 mM kynurenic acid and 20 μM picrotoxin.
(§4) Borosilicate glass electrodes (3–5 MΩ) were filled with a K^+-based internal solution for recording GIRK currents containing (mM): 120 KCl, 2 MgCl2, 11 EGTA, 30 KOH, 10 HEPES, 1 CaCl2, 1 GTP, 2 ATP, 14 creatine phosphate, pH 7.0. GABAAR currents and sIPSCs were recorded with a Cs-based internal solution containing (mM): 120 CsCl, 1 MgCl2, 11 EGTA, 30 KOH, 10 HEPES, 1 CaCl2, and 2 K2ATP; pH 7.2. […] Cells were held at −60 mV (sIPSCs) or −60/−70 mV (K^+ currents). Voltage clamp recordings were undertaken after optimising series resistance (Rs, <10 MΩ) and compensating for the whole-cell membrane capacitance. Membrane currents were filtered at 5 kHz (−3 dB, 6th pole Bessel, 36 dB/octave) and stored for analysis with Clampex 10.
(§5) Concentration-response curves were generated by measuring the current (I) for each ligand concentration and normalising to the maximal current response (Imax).
(§6) We explored the ability of CGP7930 to modulate different recombinant GABAARs expressed in HEK-293 cells to avoid confounds arising from heterogeneous receptor subtypes in neurons.

α4β3δ GABAAR = target: T2, α4β3δ GABAAR (Mus musculus, UniProt P22933+P63080+Q9D6F4); test: whole-cell currents of recombinant GABAA receptors in HEK-293 cells (α4β3δ); format: cell-based, murine
T2 construct: expressed in transfected cells; host or cells: HEK-293T
Procedure: as §1, §2, §3, §4, §5, §6

neuronal GABABRs = target: T3, neuronal GABABRs (Rattus norvegicus, UniProt O88871+Q9Z0U4); test: baclofen-activated GIRK currents in hippocampal cultures, high external K+, whole-cell voltage clamp; format: cell-based; conditions: read-out: EC50 for CGP7930 potentiation of baclofen response
T3 construct: endogenous in cells; host or cells: cultured rat (E18 Sprague-Dawley) hippocampal neurons, 12-17 DIV
Procedure: (§7) Briefly, single cells derived from dissected hippocampi were seeded onto glass coverslips coated with poly-D-lysine in a plating medium containing minimum essential media with 5% v/v heat-inactivated FCS, 5% v/v heat-inactivated horse serum, penicillin-G/streptomycin (100 U/100 μg/ml), 2 mM L-glutamine, and 20 mM glucose. Two hr after plating the media was changed to a Neurobasal-A based maintenance media supplemented with 1% v/v B-27, penicillin-G/streptomycin (100 U/100 μg/ml), 0.5% v/v Glutamax and 35 mM glucose.
Spontaneous inhibitory postsynaptic currents (sIPSCs) were recorded from cultured hippocampal neurons at 12–17 days in vitro (DIV). […] GABABR-activated K^+ currents in cultured neurons were recorded in the additional presence of 2 mM kynurenic acid and 20 μM picrotoxin.
as §4, with “Membrane currents were filtered at 5 kHz (−3 dB, 6th pole Bessel, 36 dB/octave) and stored for analysis with Clampex 10.” left out

[1] = test system: GABAAR-mediated sIPSCs in hippocampal neurons; test: phasic inhibition: sIPSCs in cultured hippocampal neurons in the presence of CGP55845 (1 μM); format: cell-based, rat; conditions: mean ± SEM
Procedure: as §7, §3, §4
sIPSCs were recorded at room temperature (20–23 °C) and detected using WinEDR and WinWCP (Strathclyde Electrophysiology Software UK), and frequency was calculated for 60 s recording epochs. For sIPSC amplitudes, several hundred events were recorded per condition and analysed as an average amplitude per cell.
For kinetic analysis, individual uncontaminated sIPSCs were isolated and the average 10–90% rise time and exponential decay times were measured from the mean sIPSC waveform. Weighted decay times are reported encompassing mono- and bi-exponentially decaying events according to the equation:τw = (A1 *τ1 + A2 *τ2) / (A1 + A2)where τ1 and τ2 are exponential decay time constants, and A1 and A2 are the relative amplitude contributions of τ1 and τ2, respectively.

T2 sequence (Q9D6F4 36-552): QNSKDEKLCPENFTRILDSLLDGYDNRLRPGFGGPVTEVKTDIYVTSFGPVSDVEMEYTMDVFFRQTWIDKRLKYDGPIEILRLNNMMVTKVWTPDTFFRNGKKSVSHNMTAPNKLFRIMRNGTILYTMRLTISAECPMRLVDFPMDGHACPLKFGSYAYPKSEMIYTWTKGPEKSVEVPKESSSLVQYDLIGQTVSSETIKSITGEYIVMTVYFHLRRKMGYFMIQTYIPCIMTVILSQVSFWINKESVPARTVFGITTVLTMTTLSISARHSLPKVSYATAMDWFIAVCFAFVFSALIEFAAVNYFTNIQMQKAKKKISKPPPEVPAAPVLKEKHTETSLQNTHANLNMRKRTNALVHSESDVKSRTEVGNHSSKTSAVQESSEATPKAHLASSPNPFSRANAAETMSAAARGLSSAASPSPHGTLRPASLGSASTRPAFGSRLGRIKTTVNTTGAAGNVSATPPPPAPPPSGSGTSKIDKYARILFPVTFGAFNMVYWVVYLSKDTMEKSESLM
T2 sequence (P63080 26-473): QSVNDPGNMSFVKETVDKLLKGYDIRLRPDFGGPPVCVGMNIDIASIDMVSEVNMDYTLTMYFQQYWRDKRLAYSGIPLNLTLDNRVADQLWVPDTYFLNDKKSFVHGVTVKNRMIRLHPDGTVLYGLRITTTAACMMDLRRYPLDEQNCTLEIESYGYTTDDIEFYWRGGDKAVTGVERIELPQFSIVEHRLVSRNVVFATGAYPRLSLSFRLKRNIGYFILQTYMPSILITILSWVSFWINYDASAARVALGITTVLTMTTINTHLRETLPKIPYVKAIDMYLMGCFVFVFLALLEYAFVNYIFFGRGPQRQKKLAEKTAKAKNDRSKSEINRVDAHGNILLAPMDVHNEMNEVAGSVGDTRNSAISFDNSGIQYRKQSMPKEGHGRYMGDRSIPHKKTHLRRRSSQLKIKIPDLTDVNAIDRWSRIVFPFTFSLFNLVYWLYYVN
T2 sequence (P22933 17-449 limits assumed): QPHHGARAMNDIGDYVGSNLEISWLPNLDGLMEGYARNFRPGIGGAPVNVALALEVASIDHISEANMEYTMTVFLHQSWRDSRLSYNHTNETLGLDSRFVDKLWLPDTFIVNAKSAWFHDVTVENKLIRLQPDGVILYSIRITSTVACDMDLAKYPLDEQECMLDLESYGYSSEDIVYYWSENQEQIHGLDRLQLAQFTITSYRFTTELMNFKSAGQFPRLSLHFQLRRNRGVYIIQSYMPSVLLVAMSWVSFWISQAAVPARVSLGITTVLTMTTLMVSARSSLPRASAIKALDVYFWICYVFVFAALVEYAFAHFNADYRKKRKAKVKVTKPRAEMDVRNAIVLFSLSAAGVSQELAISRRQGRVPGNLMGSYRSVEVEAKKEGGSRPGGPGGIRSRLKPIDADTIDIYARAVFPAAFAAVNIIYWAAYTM
T1 sequence (P62812 28-455): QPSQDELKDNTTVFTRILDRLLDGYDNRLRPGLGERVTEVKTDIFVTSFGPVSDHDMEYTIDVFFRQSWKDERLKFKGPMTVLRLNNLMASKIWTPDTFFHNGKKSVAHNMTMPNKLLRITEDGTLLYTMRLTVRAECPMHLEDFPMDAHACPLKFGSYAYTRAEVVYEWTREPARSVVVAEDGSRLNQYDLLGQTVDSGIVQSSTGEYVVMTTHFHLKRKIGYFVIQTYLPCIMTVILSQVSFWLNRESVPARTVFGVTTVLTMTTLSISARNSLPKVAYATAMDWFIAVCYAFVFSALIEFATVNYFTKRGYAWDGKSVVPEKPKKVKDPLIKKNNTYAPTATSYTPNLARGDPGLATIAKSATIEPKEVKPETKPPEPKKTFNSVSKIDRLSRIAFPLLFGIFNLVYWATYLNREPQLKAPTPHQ
T1 sequence (P63137 25-512 limits assumed): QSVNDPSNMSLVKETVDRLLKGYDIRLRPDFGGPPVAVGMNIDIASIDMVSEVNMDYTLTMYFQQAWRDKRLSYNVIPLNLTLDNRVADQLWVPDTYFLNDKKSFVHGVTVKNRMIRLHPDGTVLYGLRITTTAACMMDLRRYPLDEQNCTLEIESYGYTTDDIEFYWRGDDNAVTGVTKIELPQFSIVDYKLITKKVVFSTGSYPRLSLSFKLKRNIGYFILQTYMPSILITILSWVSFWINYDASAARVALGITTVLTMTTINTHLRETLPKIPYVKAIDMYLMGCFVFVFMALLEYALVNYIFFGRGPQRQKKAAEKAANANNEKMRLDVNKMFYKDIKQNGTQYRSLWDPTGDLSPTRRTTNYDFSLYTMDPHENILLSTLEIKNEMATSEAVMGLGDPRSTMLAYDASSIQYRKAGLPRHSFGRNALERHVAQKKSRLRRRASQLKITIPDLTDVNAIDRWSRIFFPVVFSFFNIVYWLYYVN
T1 sequence (P22723 39-474): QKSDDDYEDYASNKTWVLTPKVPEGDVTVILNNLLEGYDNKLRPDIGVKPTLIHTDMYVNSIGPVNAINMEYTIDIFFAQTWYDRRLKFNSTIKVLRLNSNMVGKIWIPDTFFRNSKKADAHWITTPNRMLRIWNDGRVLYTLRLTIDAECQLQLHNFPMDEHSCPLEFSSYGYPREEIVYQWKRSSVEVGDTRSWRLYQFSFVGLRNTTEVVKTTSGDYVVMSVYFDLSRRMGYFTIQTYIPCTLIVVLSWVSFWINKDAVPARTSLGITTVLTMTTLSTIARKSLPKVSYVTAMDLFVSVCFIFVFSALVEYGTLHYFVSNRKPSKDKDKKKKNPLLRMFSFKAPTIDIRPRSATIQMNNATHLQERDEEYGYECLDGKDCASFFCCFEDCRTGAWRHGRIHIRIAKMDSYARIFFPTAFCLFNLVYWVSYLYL
T3 sequence (Q9Z0U4 17-960 limits assumed): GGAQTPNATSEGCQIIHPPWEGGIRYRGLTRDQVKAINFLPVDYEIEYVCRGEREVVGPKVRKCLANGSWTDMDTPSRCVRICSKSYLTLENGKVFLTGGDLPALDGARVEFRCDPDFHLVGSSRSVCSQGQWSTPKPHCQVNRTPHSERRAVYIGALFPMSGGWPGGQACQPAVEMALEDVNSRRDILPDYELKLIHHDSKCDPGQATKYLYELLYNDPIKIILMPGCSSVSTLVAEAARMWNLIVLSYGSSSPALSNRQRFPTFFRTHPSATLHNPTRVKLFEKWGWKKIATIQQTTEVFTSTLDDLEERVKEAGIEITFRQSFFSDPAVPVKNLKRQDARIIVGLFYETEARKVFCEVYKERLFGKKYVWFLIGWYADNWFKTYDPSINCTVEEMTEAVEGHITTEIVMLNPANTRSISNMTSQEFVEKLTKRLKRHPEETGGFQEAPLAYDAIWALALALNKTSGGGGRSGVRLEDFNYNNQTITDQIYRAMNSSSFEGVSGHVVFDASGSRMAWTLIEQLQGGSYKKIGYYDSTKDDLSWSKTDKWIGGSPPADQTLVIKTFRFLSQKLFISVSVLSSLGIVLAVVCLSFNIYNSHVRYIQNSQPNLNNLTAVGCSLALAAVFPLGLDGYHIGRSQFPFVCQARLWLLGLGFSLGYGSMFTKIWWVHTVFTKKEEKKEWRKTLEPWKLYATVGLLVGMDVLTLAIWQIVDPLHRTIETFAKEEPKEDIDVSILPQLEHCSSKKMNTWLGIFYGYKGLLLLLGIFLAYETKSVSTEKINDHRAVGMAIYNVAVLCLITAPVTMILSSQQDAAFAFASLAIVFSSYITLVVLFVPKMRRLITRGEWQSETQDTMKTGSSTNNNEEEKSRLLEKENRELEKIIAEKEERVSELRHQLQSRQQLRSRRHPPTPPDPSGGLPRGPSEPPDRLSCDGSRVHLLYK
T3 sequence (O88871 41-940): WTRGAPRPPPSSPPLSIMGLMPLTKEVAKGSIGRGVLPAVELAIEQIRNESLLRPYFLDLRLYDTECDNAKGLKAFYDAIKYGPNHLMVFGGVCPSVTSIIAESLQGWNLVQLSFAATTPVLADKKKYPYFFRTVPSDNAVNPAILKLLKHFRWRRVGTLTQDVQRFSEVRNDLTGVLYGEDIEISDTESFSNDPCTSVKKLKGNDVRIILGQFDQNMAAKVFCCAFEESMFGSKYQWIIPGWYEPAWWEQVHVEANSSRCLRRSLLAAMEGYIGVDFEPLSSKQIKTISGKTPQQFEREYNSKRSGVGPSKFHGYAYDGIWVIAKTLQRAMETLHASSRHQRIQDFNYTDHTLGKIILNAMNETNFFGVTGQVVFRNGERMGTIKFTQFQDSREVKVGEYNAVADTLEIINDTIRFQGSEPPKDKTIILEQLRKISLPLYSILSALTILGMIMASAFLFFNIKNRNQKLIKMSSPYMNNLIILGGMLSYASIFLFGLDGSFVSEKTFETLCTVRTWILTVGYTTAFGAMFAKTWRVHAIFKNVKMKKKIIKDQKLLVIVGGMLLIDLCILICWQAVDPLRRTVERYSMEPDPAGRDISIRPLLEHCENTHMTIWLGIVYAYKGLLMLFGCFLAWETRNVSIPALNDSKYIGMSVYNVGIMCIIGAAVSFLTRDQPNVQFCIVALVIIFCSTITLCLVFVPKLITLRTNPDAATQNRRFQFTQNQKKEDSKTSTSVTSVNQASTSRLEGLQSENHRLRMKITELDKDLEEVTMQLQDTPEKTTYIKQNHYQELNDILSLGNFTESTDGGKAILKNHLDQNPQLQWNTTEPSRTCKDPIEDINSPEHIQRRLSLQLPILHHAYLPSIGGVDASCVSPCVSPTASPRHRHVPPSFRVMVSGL

With CC(C)(CO)Cc1cc(C(C)(C)C)c(O)c(C(C)(C)C)c1 [CGP7930, 3-(3′,5′-Di-tert-butyl-4′-hydroxy) phenyl-2,2-dimethylpropanol] the IC50 (α1β2γ2L GABAAR) was 6.6 ± 2.3 µM, the EC50 (α1β2γ2L GABAAR; EC50 of GABA EC20 modulation curve, α1β2γ2L, ∼EC20 GABA, direct effects subtracted, n = 5) was 1.7 ± 1.3 µM and the EC50 (α1β2γ2L GABAAR; α1β2γ2L (αβγ), read-out: EC50 for direct activation by CGP7930 alone) was 9.3 ± 0.7 µM. For the same compound, the “threshold for direct activation” value (α1β2γ2L GABAAR; α1β2γ2L, CGP7930 alone) was 1 to 3 µM, the “concentration at which clear direct activation became evident” value (α1β2γ2L GABAAR; α1β2γ2L, pre-application) was 3 to 10 µM and the “threshold for potentiation of the GABA current” value (α1β2γ2L GABAAR; α1β2γ2L, pre-application) was 1 µM. The IC50 (α4β3δ GABAAR) was 19.6 ± 13.1 µM, the EC50 (α4β3δ GABAAR; EC50 of GABA EC20 modulation curve, α4β3δ, ∼EC20 GABA, n = 7) was 1 ± 0.3 µM and the EC50 (α4β3δ GABAAR; α4β3δ (αβδ), read-out: EC50 for direct activation by CGP7930 alone) was 13.1 ± 1.4 µM. The “threshold for direct activation” value (α4β3δ GABAAR; α4β3δ, CGP7930 alone) was 1 to 3 µM, the EC50 (neuronal GABABRs) was 900 ± 600 nM and the “sIPSC Amplitude” value ([1]; 100 nM) was −70.0 ± 8.9 (7) pA. For the same compound, the “sIPSC Decay τ (weighted decay time)” value ([1]; 100 nM) was 61.9 ± 7.2 (7) ms, the “sIPSC Frequency” value ([1]; 100 nM) was 3.28 ± 0.62 (8) Hz and the “sIPSC Rise time (10–90%)” value ([1]; 100 nM) was 2.5 ± 0.20 (9) ms. For the same compound, the “sIPSC Amplitude” value ([1]; 500 nM) was −73.9 ± 8.8 (7) pA, the “sIPSC Decay τ (weighted decay time)” value ([1]; 500 nM) was 100.8 ± 11 (7) ms and the “sIPSC Frequency” value ([1]; 500 nM) was 1.53 ± 0.32 (8) Hz. The “sIPSC Rise time (10–90%)” value ([1]; 500 nM) was 3.2 ± 0.39 (9) ms, the “sIPSC Amplitude” value ([1]; 1 μM) was −124.6 ± 37.7 (7) pA and the “sIPSC Decay τ (weighted decay time)” value ([1]; 1 μM) was 205.5 ± 117 (7) ms. The “sIPSC Frequency” value ([1]; 1 μM) was 0.38 ± 0.07 (8) Hz and the “sIPSC Rise time (10–90%)” value ([1]; 1 μM) was 16.1 ± 5.2 (9) ms.
